Results taken from US6943191B1, “Disubstituted lavendustin A analogs and pharmaceutical composition comprising the analogs” (The United States of America as represented by the …, priority 1998, dated 2005).
Like-named read-outs stand apart in the source and are kept apart here.

How the values were obtained:
[1] = tested on: K562 cells; test: K562 cell culture and growth assay, 6 day MTT; assay type: cell-based, human; settings: K562, 6 days, 4 or more experiments
Procedure: This example describes the procedure used for cell culture and growth assays. Human leukemia, Philadelphia-chromosome-positive CML cell line K562 was obtained from ATCC (Rockville, Md.). Cells were cultured in RPMI medium containing 10% fetal calf serum, 2 mM glutamine, 100 units/ml of penicillin and 100 μg/ml streptomycin Cells (2×10^3 cells/well) were incubated with increasing concentrations of compounds of the present invention dissolved in DMSO in a final volume of 200 μl in 96-well plates. Control cells were incubated with medium containing identical concentrations of the DMSO solvent. Growth of K562 cells was quantitated after 6 days by ability of living cells to reduce the yellow dye 3-(4,5-dimethylthiazolyl)-2,5-diphenyltetrazolium bromide (MTT) to a blue formazan product. Further information concerning this procedure is provided by Mossman T., “Rapid Colorimetric Assay for Cellular Growth and Survival—Application to Proliferation and Cytotoxicity Assays,” J. Immunol. Methods 1983, 65:55-63, which is incorporated herein by reference.

[2] = tested on: panel of approximately 60 different human tumor cell lines; test: National Cancer Institute drug screen, mean-graph parameters; assay type: cell-based; settings: mean over cell line panel, two days exposure; for GI50: Homo sapiens, 48 h, read-out: Tumor cell Mean log GI50 (converted)
Procedure: Compounds of the present invention also have been subjected to the drug screening procedure employed by the National Cancer Institute for the screening of drugs having possible anticancer utility. The screening procedure uses a diverse, disease-oriented panel consisting of approximately 60 different human tumor cell lines organized into disease-specific subpanels. The compounds of the present invention were tested over a range of concentrations for cytotoxic or growth-inhibitory effects against cell lines comprising the panel. The eight subpanels represented diverse histologies (leukemias, melanomas, and tumors of the lung, colon, kidney, breast, ovary, and brain).
Compounds of the present invention were tested over a period of two days. During this period the cells were continuously exposed to various concentrations of the compounds tested. The tests produced individual dose-responses, one for each cell line (i.e. one for each example), and the data were represented in dose-response curves. The data provided by these dose response curves were summarized using a mean-graph format.
To produce data for the mean-graph format, a compound concentration that produced a target level response was calculated for each cell line. Three different response parameters were evaluated. The first response parameter was the growth inhibition (“GI50”). GI50 is the concentration of compounds made according to the present invention that produced an apparent 50% decrease in the number of tumor cells relative to the appropriate control (not exposed to the compounds of the present invention) at the end of the incubation period.
The second response parameter was the total growth inhibition (“TGI”). TGI is the concentration at which the number of tumor cells remaining at the end of the incubation period substantially equal the number of tumor cells existing at the start of the incubation period.
The third response parameter was the lethal concentration (“LC50”) LC50 is the concentration of compounds made according to the present invention that caused an apparent 50 percent reduction in the number of tumor cells […] at the start of the incubation period.
In a typical GI50 mean graph, the relative position of the vertical reference line along the horizontal concentration axis was obtained by averaging the negative log10GI50 values for all the cell lines tested against the compound. Horizontal bars were then plotted for the individual negative log10GI50 values of each cell line relative to the vertical reference line. The GI50 graph thus provided a characteristic fingerprint for the compound, displaying the individual cell lines that are proportionately more sensitive than average (bars extending to the right of the reference line) or proportionately less sensitive than average (bars extending to the left of the reference line). The length of a bar was proportional to the difference between the log10GI50 value obtained with the particular cell line and the mean (represented by the vertical reference line).
Similar mean graphs were prepared for the TGI and LC50 response parameters.

[3] = tested on: minimum of 12 human cancer cell lines; test: Hollow fiber assay in mice, point score; assay type: in vivo; settings: for Hollow Fiber Assay IP score: first number of cell; for Hollow Fiber Assay SC score: second number of cell
Procedure: Compounds satisfying Formulas 1 and 2 also have been tested for in vivo activity in the hollow fiber assay. See Example 12 below for the procedure used for the in vivo tests. Each compound tested was tested against a minimum of 12 human cancer cell lines. Data is reported as % T/C (i.e., the […]) for each of the 2 compound doses against each of the cell lines with separate values calculated for the intraperitoneal and subcutaneous samples, with a target value for % T/C being about 50 or less.
Compounds were selected for further in vivo testing in standard subcutaneous xenograft models on the basis of several hollow fiber assay criteria. These criteria include: (1) a % T/C of 50 or less in 10 of the 48 possible test combinations (12 cell lines×2 sites×2 compound doses); (2) activity at a distance (intrapentoneal drug/subcutaneous culture) in a minimum of 4 of the 24 possible combinations; and/or (3) a net cell kill of 1 or more cell lines in either implant site. To simplify evaluation, a point system has been adopted which allows rapid assessment of a compound's activity. A value of 2 is assigned for each compound dose which results in a 50% or greater reduction in viable cell mass. The intraperitoneal and subcutaneous samples were scored separately so that criteria (1) and (2) could be evaluated. Compounds with a combined IP+SC score≧20, an SC score≧8, or a net cell kill of one or more cell lines were referred for xenograft testing. These criteria have been statistically validated by comparing the activity outcomes of greater than 80 randomly selected compounds in the hollow fiber assay and in the xenograft testing.
This example describes the method used for in vivo testing of mice. Human cancer cells were cultivated in polyvinylidene fluoride (PVDF) hollow fibers. A sample of each cancer cell line was implanted intraperitoneally and subcutaneously in mice. Each mouse received a total of 6 fibers, 3 intraperitoneally and 3 subcutaneously, representing 3 distinct cancer cell lines. Three mice were treated with compounds made according to the present invention at each of two test doses intraperitoneally using a QD×4 treatment schedule. Vehicle controls consisted of 6 mice receiving the compound diluent only The fiber cultures were collected on the day following the last treatment. Anticancer effects were assessed by determining viable cell mass for each of the coil line using a formazan dye (MTT) conversion assay. From this, the % TIC was calculated using the average optical density of the compound-treated samples divided by the average optical density of the vehicle controls. In addition, the net increase in cell mass was determined for each sample as samples of fiber cultures were assessed for viable cell mass on the day of implantation into mice. This allowed cytostatic and cytocidal capacities of these compounds to be assessed.

[4] = Homo sapiens, 144 h, Table 9, mean ± S.E., read-out: IC50 (μM) 6dMTT

With `COc1ccc(OC)c(CNc2ccc(C(=O)O)cc2)c1` [COOH / H / CH3] the IC50 ([1]; Table 8, mean+S.E., read-out: IC50 (μM) 6 dMTT) was 100 µM, the “Tumor Cell Mean log GI50” value ([2]; Table 8) was −4.0 and the “Tumor Cell Mean log TGI” value ([2]; Table 8) was −4.0.

For `O=C1C=CC(=O)C(CNc2ccc(C(=O)OC34CC5CC(CC(C5)C3)C4)cc2)=C1` [Compound 22, 4′-adamantylbenzoate-1′-N-p-quinone-2-methyl amine], the IC50 [1, 4] was 32 ± 0.5 µM, the GI50 ([2]; Table 9) was 4.79 µM and the “Tumor Cell Mean log TGI” value ([2]; Table 9) was −4.72.

For `COC(=O)c1ccc(NCC2=CC(=O)c3ccccc3C2=O)cc1` [Compound 19, 4′-methylbenzoate-1′-N-1,4-methylnaphthoquinone amine], the IC50 [1, 4] was 9.11 ± 1 µM, the GI50 ([2]; Table 9) was 13.8 µM and the “Tumor Cell Mean log TGI” value ([2]; Table 9) was −4.41.

With `COC(=O)c1ccc(NCc2cc(OC)ccc2OC)cc1` [COOCH3 / H / CH3] the IC50 ([1]; Homo sapiens, 144 h, Table 8, mean+S.E., read-out: IC50 (μM) 6 dMTT) was 41.3 µM, the “Tumor Cell Mean log GI50” value ([2]; Table 8) was −4.40 and the “Tumor Cell Mean log TGI” value ([2]; Table 8) was −4.04.

For `COC(=O)c1ccc(NCc2cc(O)c3ccccc3c2O)cc1` [Compound 18], the IC50 [1, 4] was 6.83 ± 1.68 µM, the GI50 ([2]; Table 9) was 8.91 µM and the “Tumor Cell Mean log TGI” value ([2]; Table 9) was −4.62. The “Hollow Fiber Assay IP score” value ([3]; Table 9, intraperitoneal fibers) was 4, the “Hollow Fiber Assay SC score” value ([3]; Table 9, subcutaneous fibers) was 0 and the “Hollow Fiber Assay Total Ip and SC Score” value ([3]; Table 9) was 0.

In the case of `O=C(O)c1ccc(/C=C/c2cc(O)ccc2O)cc1O` [COOH / 2,5-dihydroxyphenyl / CH═CH / OH], the “Tumor Cell Mean log GI50” value ([2]; Table 10) is reported as >−5.03 and the “Tumor Cell Mean log TGI” value ([2]; Table 10) is reported as >−5.0.

In the case of `COC(=O)c1ccc(CCC2=CC(=O)C=CC2=O)cc1` [COOCH3 / 2,5-quinoyl / CH2—CH2 / H], the IC50 ([1]; Table 10, mean ± S.E., read-out: IC50 (μM) 6dMTT) is reported as 5.65 ± 0.8 µM, the “Tumor Cell Mean log GI50” value ([2]; Table 10) is reported as −5.00 and the “Tumor Cell Mean log TGI” value ([2]; Table 10) is reported as −4.65. The “Hollow Fiber Assay IP score” value ([3]; Table 10) was 6, the “Hollow Fiber Assay SC score” value ([3]; Table 10) was 4 and the “Hollow Fiber Assay Total Ip and SC Score” value ([3]; Table 10) was 10.
